Measured values as given in patent publication US8404685B2, “Dihydropyrazole derivatives as tyrosine kinase modulators for the treatment of tumors” (Merck Patent Gesellschaft Mit Beschrankter Haftung, priority 2008, dated 2013).

Key:
Met kinase [1] = target: T1, Met kinase (Homo sapiens, UniProt P08581); assay: Met kinase inhibition, flashplate method (enzyme); assay type: biochemical; set-up: 6His (N); purchased Upstate 14-526; host or cells: Sf21 insect cells (S. frugiperda), baculovirus
Excerpt: According to the manufacturer's data (Met, active, Upstate, catalogue No. 14-526), Met kinase is expressed for the purposes of protein production in insect cells (Sf21; S. frugiperda) and subsequent affinity-chromatographic purification as “N-terminal 6His-tagged” recombinant human protein in a baculovirus expression vector.
The test plates used are 96-well Flashplate® microtitre plates from Perkin Elmer (Cat. No. SMP200). The components of the kinase reaction described below are pipetted into the assay plate. The Met kinase and the substrate poly Ala-Glu-Lys-Tyr, (pAGLT, 6:2:5:1), are incubated for 3 hrs at room temperature with radioactively labelled ^33P-ATP in the presence and absence of test substances in a total volume of 100 μl. The reaction is terminated using 150 μl of a 60 mM EDTA solution. After incubation for a further 30 min at room temperature, the supernatants are filtered off with suction, and the wells are washed three times with 200 μl of 0.9% NaCl solution each time. The measurement of the bound radioactivity is carried out by means of a scintillation measuring instrument (Topcount NXT, Perkin-Elmer).
The full value used is the inhibitor-free kinase reaction. This should be approximately in the range 6000-9000 cpm. The pharmacological zero value used is staurosporin in a final concentration of 0.1 mM. The inhibitory values (IC50) are determined using the RS1_MTS program.
Kinase reaction conditions per well:
10 μl of substance to be tested in assay buffer with 10% of DMSO
10 μl of ATP (final concentration 1 μM cold, 0.35 μCi of ^33P-ATP)
50 μl of Met kinase/substrate mixture in assay buffer;
• (10 ng of enzyme/well, 50 ng of pAGLT/well) • Solutions used: • Assay buffer: • 50 mM HEPES • 3 mM magnesium chloride • 3 μM sodium orthovanadate • 3 mM manganese(II) chloride • 1 mM dithiothreitol (DTT) • pH=7.5 (to be set using sodium hydroxide) • Stop solution: • 60 mM Titriplex III (EDTA) • ^33P-ATP: Perkin-Elmer; • Met kinase: Upstate, Cat. No. 14-526, Stock 1 μg/10 μl; spec. activity 954 U/mg; • Poly-Ala-Glu-Lys-Tyr, 6:2:5:1: Sigma Cat. No. P1152 In-Vivo Tests

Met kinase [2] = target: T1, Met kinase; assay: Met kinase inhibition (cell); assay type: cell-based

T1 sequence (P08581 25-1390): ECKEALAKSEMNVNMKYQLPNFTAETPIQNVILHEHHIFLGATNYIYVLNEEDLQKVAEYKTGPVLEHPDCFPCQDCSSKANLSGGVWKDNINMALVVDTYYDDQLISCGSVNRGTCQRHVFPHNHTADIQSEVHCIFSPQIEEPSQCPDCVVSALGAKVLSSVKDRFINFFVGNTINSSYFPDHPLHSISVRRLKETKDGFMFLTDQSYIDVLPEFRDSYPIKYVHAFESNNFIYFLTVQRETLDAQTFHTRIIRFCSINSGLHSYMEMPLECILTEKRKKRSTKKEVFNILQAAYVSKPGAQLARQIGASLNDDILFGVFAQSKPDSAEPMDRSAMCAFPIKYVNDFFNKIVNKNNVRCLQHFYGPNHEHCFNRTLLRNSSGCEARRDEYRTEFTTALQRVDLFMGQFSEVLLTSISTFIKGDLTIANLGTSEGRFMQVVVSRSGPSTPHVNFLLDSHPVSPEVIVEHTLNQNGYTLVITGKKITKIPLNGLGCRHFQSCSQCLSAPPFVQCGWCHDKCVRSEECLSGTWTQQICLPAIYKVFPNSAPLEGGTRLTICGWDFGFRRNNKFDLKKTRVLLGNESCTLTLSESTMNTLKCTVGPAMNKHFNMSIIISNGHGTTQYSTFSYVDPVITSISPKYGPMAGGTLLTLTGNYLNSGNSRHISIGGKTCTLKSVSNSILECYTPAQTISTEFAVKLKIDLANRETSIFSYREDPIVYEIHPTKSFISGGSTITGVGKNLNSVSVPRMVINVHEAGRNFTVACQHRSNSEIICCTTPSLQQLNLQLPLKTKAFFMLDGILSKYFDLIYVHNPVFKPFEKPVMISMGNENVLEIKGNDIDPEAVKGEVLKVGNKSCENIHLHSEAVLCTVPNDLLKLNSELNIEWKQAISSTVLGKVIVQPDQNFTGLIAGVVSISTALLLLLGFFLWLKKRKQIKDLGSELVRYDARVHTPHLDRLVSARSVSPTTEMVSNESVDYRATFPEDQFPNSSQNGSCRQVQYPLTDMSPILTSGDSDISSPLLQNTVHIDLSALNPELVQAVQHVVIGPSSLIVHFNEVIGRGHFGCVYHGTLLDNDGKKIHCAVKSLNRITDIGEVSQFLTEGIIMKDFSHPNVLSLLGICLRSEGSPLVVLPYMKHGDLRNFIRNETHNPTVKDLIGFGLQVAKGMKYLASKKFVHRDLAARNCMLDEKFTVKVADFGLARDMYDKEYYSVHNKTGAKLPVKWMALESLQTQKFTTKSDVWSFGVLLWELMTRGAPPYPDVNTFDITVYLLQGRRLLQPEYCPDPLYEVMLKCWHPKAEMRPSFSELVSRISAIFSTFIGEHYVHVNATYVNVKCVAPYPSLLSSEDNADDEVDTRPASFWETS

Row | IC50 (Met kinase [1]) [µM] | IC50 (Met kinase [2]) [µM] | Compound
1 | 0.001 to 0.1 | 0.001 to 0.1 | O=C(Cc1cccc(-c2ncc(-c3cnn(CCN4CCCC4)c3)cn2)c1)N1CCC(c2cc(Cl)ccc2Cl)=N1 [Compound A1, 1-[3-(2,5-dichlorophenyl)-4,5-dihydropyrazol-1-yl]-2-(3-{5-[1-(2-pyrrolidin-1-ylethyl)-1H-pyrazol-4-yl]pyrimidin-2-yl}phenyl)ethanone]
2 | 0.001 to 0.1 | 0.001 to 0.1 | O=C(Cc1cccc(-c2ncc(OCCN3CCOCC3)cn2)c1)N1CCC(c2cc(Cl)ccc2Cl)=N1 [Compound A8, 1-[3-(2,5-dichlorophenyl)-4,5-dihydropyrazol-1-yl]-2-{3-[5-(2-morpholin-4-ylethoxy)pyrimidin-2-yl]phenyl}ethanone]
3 | 0.001 to 0.1 | 0.001 to 0.1 | N#Cc1cccc(C2=NN(C(=O)Cc3cccc(-c4ncc(Br)cn4)c3)CC2)c1 [Compound A7, 3-(1-{2-[3-(5-bromopyrimidin-2-yl)phenyl]acetyl}-4,5-dihydro-1H-pyrazol-3-yl)benzonitrile]
